ChEMBL document CHEMBL1201862, “PubChem BioAssay data set” (2004)
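These data come from cells grown in 96-well plates and exposed to compound for 48 hours at five concentrations. GI50 is the concentration that inhibits growth by half.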 Active and inactive are the calls of the source. Rule as the data show it: active = GI50 up to about 1.1 µM and inactive = higher.

What was measured:
Test in all cases: inhibition of tumour cell growth, NCI panel, 48 h
[1] = tested on: SR
[2] = tested on: EKVX
[3] = tested on: COLO 205
[4] = tested on: 786-0
[5] = tested on: MDA-MB-435
[6] = tested on: SK-MEL-28
[7] = tested on: DU-145
[8] = tested on: KM12
[9] = tested on: SF-268
[10] = tested on: SN12C
[11] = tested on: SF-295
[12] = tested on: UACC-257
[13] = tested on: OVCAR-8
[14] = tested on: PC-3
[15] = tested on: HCT-116
[16] = tested on: M14
[17] = tested on: NCI-H460
[18] = tested on: NCI/ADR-RES
[19] = tested on: MOLT-4
[20] = tested on: HL-60

Row | Structure (SMILES) | GI50 [1] | GI50 [2] | GI50 [3] | GI50 [4] | GI50 [5] | GI50 [6] | GI50 [7] | GI50 [8] | GI50 [9] | GI50 [10] | GI50 [11] | GI50 [12] | GI50 [13] | GI50 [14] | GI50 [15] | GI50 [16] | GI50 [17] | GI50 [18] | GI50 [19] | GI50 [20]
1 | CC(C)NC(=O)OCc1c2c(n(C)c1COC(=O)NC(C)C)-c1cc(Cl)c(Cl)cc1CC2 | > 100 µM (inactive) | 33.3 µM (inactive) | 31.3 µM (inactive) | 37.2 µM (inactive) | 33.7 µM (inactive) | 64.1 µM (inactive) | 70.8 µM (inactive) | 30.6 µM (inactive) | 69.2 µM (inactive) | 43 µM (inactive) | 46.5 µM (inactive) | 28.4 µM (inactive) | 31 µM (inactive) | 32.9 µM (inactive) | 24.8 µM (inactive) | 27.9 µM (inactive) | 34.4 µM (inactive) | 33.4 µM (inactive) | 18.7 µM (inactive) | 
2 | O=c1[nH]ncc2[nH]c3c4ccccc4ccc3c12 | 31.3 µM (inactive) | 10.8 µM (inactive) | 24.2 µM (inactive) | 61.7 µM (inactive) | 18 µM (inactive) |  | > 100 µM (inactive) | 37.4 µM (inactive) | 37.2 µM (inactive) |  | 22.6 µM (inactive) |  | 51.3 µM (inactive) | 39.2 µM (inactive) | 42.2 µM (inactive) | 94.6 µM (inactive) | 32.1 µM (inactive) | > 100 µM (inactive) | 35.6 µM (inactive) | 80.7 µM (inactive)
3 | CO/N=C(\C)c1ccc(Nc2nc3ccccc3c3occc23)cc1 | 24.7 µM (inactive) | 14 µM (inactive) | 14.5 µM (inactive) | 14.2 µM (inactive) | 16.4 µM (inactive) |  | 15.5 µM (inactive) | 17.6 µM (inactive) | 16.4 µM (inactive) | 15.2 µM (inactive) | 16.7 µM (inactive) | 17.3 µM (inactive) | 16.7 µM (inactive) | 16.2 µM (inactive) | 14.3 µM (inactive) | 16.3 µM (inactive) | 15.6 µM (inactive) | 15.6 µM (inactive) | 17.1 µM (inactive) | 26.5 µM (inactive)
4 | N[C@H]1CCc2c1nc1c(c2-c2ccccc2)CC[C@@H]1N | 31.5 µM (inactive) | > 100 µM (inactive) | 20.6 µM (inactive) | 14.7 µM (inactive) | 15.8 µM (inactive) |  | 24.2 µM (inactive) | 28.9 µM (inactive) | 18.1 µM (inactive) | 44.1 µM (inactive) | 18.5 µM (inactive) | > 10 µM (inactive) | 39.8 µM (inactive) | 15.3 µM (inactive) | 18.1 µM (inactive) | 16.3 µM (inactive) | 25.6 µM (inactive) | 46.9 µM (inactive) | 8.73 µM (inactive) | 15.7 µM (inactive)
5 | COc1cccc2c(NNc3ccccc3)c3ccc([N+](=O)[O-])cc3nc12 | 18.7 µM (inactive) | 78.2 µM (inactive) | 46.3 µM (inactive) | 21.2 µM (inactive) | 18.1 µM (inactive) | 43.2 µM (inactive) | 73.6 µM (inactive) | 11.6 µM (inactive) | 19.6 µM (inactive) | 47.1 µM (inactive) | 27.5 µM (inactive) | 29.9 µM (inactive) | 31.1 µM (inactive) | 14.7 µM (inactive) | 22.8 µM (inactive) | 24 µM (inactive) | 32.3 µM (inactive) | 41.5 µM (inactive) | 1.03 µM (active) | 
6 | Fc1ccc2nc3n(c2c1)C(c1c(Cl)cccc1Cl)SC3 (stereo unspecified) | 4.3 µM (inactive) |  | > 100 µM (inactive) | > 100 µM (inactive) | > 100 µM (inactive) | > 100 µM (inactive) | > 100 µM (inactive) | > 100 µM (inactive) | > 100 µM (inactive) | > 100 µM (inactive) | > 100 µM (inactive) | > 100 µM (inactive) | > 100 µM (inactive) | > 100 µM (inactive) | > 100 µM (inactive) | > 100 µM (inactive) | > 100 µM (inactive) | > 100 µM (inactive) | 6.71 µM (inactive) | 
